Test [1] deals with T1, Alpha-1 adrenergic receptor (Mus musculus, UniProt P97714+P97717+P97718).
T1 sequence (P97714 whole entry): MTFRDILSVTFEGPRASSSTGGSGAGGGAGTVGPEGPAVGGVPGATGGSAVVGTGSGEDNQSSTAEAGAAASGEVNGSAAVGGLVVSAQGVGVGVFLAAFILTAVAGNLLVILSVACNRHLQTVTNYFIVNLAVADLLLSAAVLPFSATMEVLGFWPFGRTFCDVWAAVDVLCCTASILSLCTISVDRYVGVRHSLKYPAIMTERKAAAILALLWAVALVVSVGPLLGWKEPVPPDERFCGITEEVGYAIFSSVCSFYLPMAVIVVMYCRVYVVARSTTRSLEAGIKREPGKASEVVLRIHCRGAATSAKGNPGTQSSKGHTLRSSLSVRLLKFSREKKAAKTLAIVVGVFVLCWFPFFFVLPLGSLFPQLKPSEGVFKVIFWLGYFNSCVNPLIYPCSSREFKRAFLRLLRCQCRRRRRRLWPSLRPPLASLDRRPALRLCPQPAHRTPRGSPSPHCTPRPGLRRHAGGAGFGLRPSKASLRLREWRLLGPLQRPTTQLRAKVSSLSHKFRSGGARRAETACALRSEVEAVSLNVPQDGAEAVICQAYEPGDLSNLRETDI
T1 sequence (P97717 whole entry): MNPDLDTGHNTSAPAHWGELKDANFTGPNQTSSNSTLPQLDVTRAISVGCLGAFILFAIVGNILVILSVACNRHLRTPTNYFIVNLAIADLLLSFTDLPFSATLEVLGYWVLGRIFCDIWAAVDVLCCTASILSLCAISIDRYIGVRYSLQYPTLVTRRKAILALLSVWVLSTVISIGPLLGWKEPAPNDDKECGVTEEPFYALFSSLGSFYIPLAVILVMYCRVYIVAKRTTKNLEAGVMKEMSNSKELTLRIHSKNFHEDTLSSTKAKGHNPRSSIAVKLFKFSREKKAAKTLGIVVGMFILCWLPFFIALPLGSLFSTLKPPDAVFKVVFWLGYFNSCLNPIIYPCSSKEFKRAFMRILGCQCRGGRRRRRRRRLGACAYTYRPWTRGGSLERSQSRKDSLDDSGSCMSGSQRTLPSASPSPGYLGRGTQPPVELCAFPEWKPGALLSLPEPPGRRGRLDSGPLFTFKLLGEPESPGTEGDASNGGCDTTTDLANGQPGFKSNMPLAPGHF
T1 sequence (P97718 whole entry): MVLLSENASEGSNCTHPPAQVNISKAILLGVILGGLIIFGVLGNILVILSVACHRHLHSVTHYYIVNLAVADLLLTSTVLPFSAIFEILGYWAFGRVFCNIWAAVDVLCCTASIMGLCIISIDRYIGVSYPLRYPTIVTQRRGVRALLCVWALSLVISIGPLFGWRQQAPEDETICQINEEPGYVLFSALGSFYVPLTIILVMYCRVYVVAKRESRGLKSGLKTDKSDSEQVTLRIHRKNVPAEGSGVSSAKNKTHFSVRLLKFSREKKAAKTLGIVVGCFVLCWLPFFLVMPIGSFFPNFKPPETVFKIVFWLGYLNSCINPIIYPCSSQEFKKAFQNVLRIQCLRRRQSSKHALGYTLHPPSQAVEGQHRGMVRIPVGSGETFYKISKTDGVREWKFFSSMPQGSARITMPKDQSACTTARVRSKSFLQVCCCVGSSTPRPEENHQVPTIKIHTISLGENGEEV
Nature of the test: Tested for its binding affinity against Alpha-1 adrenergic receptor; showed no appreciable affinity at concentration specified. It counts as protein assay.

In a further test the target is D(2) dopamine receptor (Mus musculus, UniProt P61168). In words: Tested for its binding affinity against Dopamine receptor D2; showed no appreciable affinity at concentration specified.
Chain of D(2) dopamine receptor (P61168 whole entry): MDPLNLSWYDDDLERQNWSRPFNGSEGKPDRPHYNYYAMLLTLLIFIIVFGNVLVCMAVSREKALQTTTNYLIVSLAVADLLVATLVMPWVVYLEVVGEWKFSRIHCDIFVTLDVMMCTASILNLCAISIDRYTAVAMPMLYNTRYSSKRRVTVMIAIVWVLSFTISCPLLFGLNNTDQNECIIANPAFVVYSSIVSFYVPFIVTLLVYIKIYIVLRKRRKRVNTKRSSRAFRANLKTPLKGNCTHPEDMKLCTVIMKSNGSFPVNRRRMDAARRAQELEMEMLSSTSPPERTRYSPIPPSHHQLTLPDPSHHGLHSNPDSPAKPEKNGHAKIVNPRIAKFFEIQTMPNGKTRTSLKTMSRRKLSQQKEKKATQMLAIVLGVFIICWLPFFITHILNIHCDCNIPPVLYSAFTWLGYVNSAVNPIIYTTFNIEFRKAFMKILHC
Test [2] has as its target Muscarinic acetylcholine receptor. Nature of the test: Tested for its binding affinity against muscarinic receptor; showed no appreciable affinity at concentration specified. In kind it is protein assay.
In test [3] the target is Serotonin transporter (Rattus norvegicus). Nature of the test: Compound was evaluated for inhibition of 5-HT uptake by measuring its ability to inhibit [3H]paroxetine binding to rat cortical membranes.
Test [4] deals with Mus musculus. In words: Effective dose required for half maximal potentiation of head twitches observed with 5-HTP after oral administration (1 hr 30 min). It counts as functional.
The test system of test [5] is Mus musculus. Nature of the test: Effective dose required for half maximal potentiation of head twitches observed with 5-HTP after subcutaneous administration (1 hr). In kind it is functional. As to conditions: sc.

Here are results for 20 compounds from ChEMBL document CHEMBL1127103, “New indole derivatives as potent and selective serotonin uptake inhibitors” (Bioorg Med Chem Lett, 1993).

Take `CN(CCN1CCC(Cc2c[nH]c3ccc(F)cc23)CC1)S(=O)(=O)c1ccccc1`: the half-inhibitory concentration (IC50) in test [1] is more than 100 nM; on D(2) dopamine receptor it was more than 100 nM; in test [2] it was more than 100 nM; in test [3], 30 nM.

Take `O=C1CSc2ccccc2N1CCN1CCC(Cc2c[nH]c3ccc(F)cc23)CC1`: the ED50 in the test on Mus musculus [4] was more than 20 mg/kg. Besides, the IC50 was more than 100 nM in test [1], more than 100 nM on D(2) dopamine receptor, more than 100 nM in test [2] and 1.1 nM in test [3].

With `O=C1Nc2ccccc2S(=O)(=O)N1CCN1CCC(Cc2c[nH]c3ccc(F)cc23)CC1`, the median effective dose (ED50) in the test on Mus musculus [4] was more than 20 mg/kg. The half-inhibitory concentration (IC50) in test [1] was more than 100 nM; at D(2) dopamine receptor it was more than 100 nM; in test [2], more than 100 nM; in test [3], 2.1 nM.

As for `O=c1[nH]c2ccccc2c(=O)n1CCN1CCC(Cc2c[nH]c3ccc(F)cc23)CC1`, the 50% effective dose (ED50) in the test on Mus musculus [4] stood at 20 mg/kg. The IC50 in test [1] was more than 100 nM; on D(2) dopamine receptor, more than 100 nM; in test [2], more than 100 nM; in test [3] it was 0.5 nM.

Take `O=C1Cc2ccccc2N1CCN1CCC(Cc2c[nH]c3ccc(F)cc23)CC1`: the half-maximal inhibitory concentration (IC50) is more than 100 nM in test [1], more than 100 nM at D(2) dopamine receptor, more than 100 nM in test [2] and 3.1 nM in test [3].

Consider `CC1(C)CN(CCN2CCC(Cc3c[nH]c4ccc(F)cc34)CC2)C(=O)c2ccccc21`, for which, in the test on Mus musculus [4], the 50% effective dose (ED50) stood at 20 mg/kg. Further, the IC50 was more than 100 nM in test [1], more than 100 nM on D(2) dopamine receptor, more than 100 nM in test [2] and 3.8 nM in test [3].

`COC1=Nc2cccc3cccc(c23)N1CCN1CCC(Cc2c[nH]c3ccc(F)cc23)CC1`: the IC50 in test [1] was more than 100 nM; on D(2) dopamine receptor, more than 100 nM; in test [2], more than 100 nM; in test [3], 22.6 nM.

As for `O=S(=O)(NCCN1CCC(Cc2c[nH]c3ccc(F)cc23)CC1)c1ccccc1`, in the test on Mus musculus [4], the ED50 is more than 20 mg/kg. Besides, the IC50 in test [1] is more than 100 nM; at D(2) dopamine receptor, more than 100 nM; in test [2] it was more than 100 nM; in test [3] it was 6 nM.

`C[Si]1(C)CN(CCN2CCC(Cc3c[nH]c4ccc(F)cc34)CC2)C(=O)c2ccccc21`: in the test with Mus musculus [4], the ED50 was more than 20 mg/kg. For the same compound, the concentration for half-maximal inhibition (IC50) in test [1] was more than 100 nM; at D(2) dopamine receptor, more than 100 nM; in test [2] it was more than 100 nM; in test [3], 2.6 nM.

Take `Cn1c(=O)c2ccccc2n(CCN2CCC(Cc3c[nH]c4ccc(F)cc34)CC2)c1=O`: the ED50 in the test with Mus musculus [4] is 20 mg/kg. The IC50 in test [1] was more than 100 nM; at D(2) dopamine receptor, more than 100 nM; in test [2], more than 100 nM; in test [3], 5.9 nM.

Turning to `O=C1CN(CCN2CCC(Cc3c[nH]c4ccc(F)cc34)CC2)S(=O)(=O)c2ccccc21`, in the test with Mus musculus [4], the ED50 is more than 20 mg/kg. The IC50 (in test [1]; on D(2) dopamine receptor; in test [2]) was more than 100 nM in each case.

As for `O=S1(=O)c2ccccc2CN1CCN1CCC(Cc2c[nH]c3ccc(F)cc23)CC1`, the figures for the median effective dose (ED50) with Mus musculus [4] and in the test on Mus musculus [5] were 7.2 mg/kg and 4.5 mg/kg, respectively. The half-inhibitory concentration (IC50) is more than 100 nM in test [1], more than 100 nM on D(2) dopamine receptor, more than 100 nM in test [2] and 1 nM in test [3].

`O=C1Nc2cccc3cccc(c23)N1CCN1CCC(Cc2c[nH]c3ccc(F)cc23)CC1`: the 50% effective dose (ED50) in the test on Mus musculus [4] came to 2 mg/kg; in the test with Mus musculus [5], 4 mg/kg. Further, the IC50 in test [1] was more than 100 nM; on D(2) dopamine receptor, more than 100 nM; in test [2] it was more than 100 nM; in test [3] it was 1.5 nM.

For `C[Si]1(C)CN(CCN2CCC(Cc3c[nH]c4ccc(F)cc34)CC2)S(=O)(=O)c2ccccc21`, the 50% inhibitory concentration (IC50) (in test [1]; at D(2) dopamine receptor; in test [2]) was more than 100 nM each time.

Take `O=C1c2cccc3cccc(c23)C(=O)N1CCN1CCC(Cc2c[nH]c3ccc(F)cc23)CC1`: the ED50 is 2.3 mg/kg in the test on Mus musculus [4] and 6.1 mg/kg in the test on Mus musculus [5]. Further, the half-maximal inhibitory concentration (IC50) (in test [1]; at D(2) dopamine receptor; in test [2]) was more than 100 nM each time.

Consider `O=S1(=O)Nc2cccc3cccc(c23)N1CCN1CCC(Cc2c[nH]c3ccc(F)cc23)CC1`, for which the IC50 in test [1] was more than 100 nM; at D(2) dopamine receptor, more than 100 nM; in test [2], more than 100 nM; in test [3], 12 nM.

On to `CN1c2cccc3cccc(c23)N(CCN2CCC(Cc3c[nH]c4ccc(F)cc34)CC2)S1(=O)=O`, for which the ED50 in the test on Mus musculus [4] is more than 20 mg/kg. The 50% inhibitory concentration (IC50) was more than 100 nM in test [1], more than 100 nM on D(2) dopamine receptor, more than 100 nM in test [2] and 3.7 nM in test [3].

As to `O=C1N(CCN2CCC(Cc3c[nH]c4ccc(F)cc34)CC2)c2ccccc2C12CC2`, the 50% effective dose (ED50) in the test with Mus musculus [4] was more than 20 mg/kg. Further, the IC50 in test [1] is more than 100 nM; on D(2) dopamine receptor it was more than 100 nM; in test [2], more than 100 nM; in test [3], 4 nM.

As to `CNCCC(Oc1ccc(C(F)(F)F)cc1)c1ccccc1` (stereo not drawn) [FLUOXETINE], the ED50 in the test on Mus musculus [5] came out at 6.3 mg/kg.

Consider `O=S1(=O)N(CCN2CCC(Cc3c[nH]c4ccc(F)cc34)CC2)c2cccc3c2N1CCC3` [RP-68303], for which the ED50 in the test with Mus musculus [5] is 5.1 mg/kg. Moreover, the IC50 in test [3] came to 1.2 nM.

Broadly, the IC50 is the concentration needed to halve the response being measured. The term ED50 denotes the dose at which the effect has come halfway, by size or by number of responders.
